Article PMC5492227 (European journal of medicinal chemistry, 2017)

Target: T1, EPAC1 (Homo sapiens, UniProt O95398)
T1 sequence (O95398 1-923): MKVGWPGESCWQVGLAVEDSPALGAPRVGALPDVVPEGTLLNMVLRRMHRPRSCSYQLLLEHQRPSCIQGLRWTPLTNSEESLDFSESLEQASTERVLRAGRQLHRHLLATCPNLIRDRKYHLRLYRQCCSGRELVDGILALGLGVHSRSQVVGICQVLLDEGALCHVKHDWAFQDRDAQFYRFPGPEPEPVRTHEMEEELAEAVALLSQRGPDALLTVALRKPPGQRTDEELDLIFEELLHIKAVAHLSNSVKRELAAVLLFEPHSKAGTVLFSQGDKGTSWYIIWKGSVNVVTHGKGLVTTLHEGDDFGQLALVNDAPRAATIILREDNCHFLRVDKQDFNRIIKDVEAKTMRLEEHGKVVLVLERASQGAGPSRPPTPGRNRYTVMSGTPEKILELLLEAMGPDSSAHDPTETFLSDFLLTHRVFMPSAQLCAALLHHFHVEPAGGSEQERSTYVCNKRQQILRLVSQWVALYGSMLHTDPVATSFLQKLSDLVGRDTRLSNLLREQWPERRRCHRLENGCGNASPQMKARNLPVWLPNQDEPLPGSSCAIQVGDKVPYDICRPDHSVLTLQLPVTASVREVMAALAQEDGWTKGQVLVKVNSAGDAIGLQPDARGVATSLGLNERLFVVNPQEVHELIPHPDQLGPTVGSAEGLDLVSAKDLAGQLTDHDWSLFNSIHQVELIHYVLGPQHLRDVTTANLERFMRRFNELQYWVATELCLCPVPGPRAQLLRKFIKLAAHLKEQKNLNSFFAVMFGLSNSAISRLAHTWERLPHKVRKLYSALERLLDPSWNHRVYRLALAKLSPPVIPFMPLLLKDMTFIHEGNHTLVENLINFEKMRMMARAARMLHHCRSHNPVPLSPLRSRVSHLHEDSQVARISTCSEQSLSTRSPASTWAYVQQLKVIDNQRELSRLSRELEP
Experiment: biochemical
Type: biochemical

Structure (SMILES) | fold increase in potency compared to that of 1 (EPAC1) | IC50 (Rap1b-bGDP EPAC1 IC50, purified recombinant full-length EPAC1, 20 μM cAMP, mean ± SD of at least three independent experiments) [µM]
N#C/C(=N\Nc1ccc(Cl)c(C(F)(F)F)c1)C(=O)c1cc(-c2ccccc2)on1 [Compound 14, N-(3-Trifluromethyl-4-chlorophenyl)-2-oxo-2-(5-phenylisoxazol-3-yl)acetohydrazonoyl cyanide] | about 5 fold | –
N#C/C(=N\Nc1cccc(Cl)c1)C(=O)c1cc(-c2ccco2)on1 [Compound 25, N-(3-Chlorophenyl)-2-(5-(furan-2-yl)isoxazol-3-yl)-2-oxoacetohydrazonoyl cyanide] | – | 3.6
